Data from paper PMC9019100, “Development of NanoLuc-targeting protein degraders and a universal reporter system to benchmark tag-targeted degradation platforms” (Nature Communications, 2022).
Where “and” joins values, the source holds several entries; their conditions need not be identical. Equal values may be shown once. Read-outs that look alike come from different tables or passages of the source. Peptide text beside a SMILES is read from it. * marks the point of attachment. Cbz = O=C(OCc1ccccc1)*

Tests used:
[1] = biological target: T1, Halo-EGFP-NanoLuc-FKBP^F36V (H-E-N-F) fusion protein (UniProt P0A3G2+P62942+Q9GV45, A155T/A167V/A172T/A224E/A31E/A60N/A81I/C128F/C176G/D78G/E160K/E257K/F37V/F95D/H272N/I117V/K175M/K195N/K70R/L47V/L54V/L88M/L99Q/M102K/N193R/N227D/P142E/P291S/Q151K/Q38R/Q45L/S2A/S58T/T264A/V71I/Y165I/Y273L/Y87F); type: cell-based
T1 sequence (Q9GV45 other isoform, or with tags, fused parts or gaps with the stated changes): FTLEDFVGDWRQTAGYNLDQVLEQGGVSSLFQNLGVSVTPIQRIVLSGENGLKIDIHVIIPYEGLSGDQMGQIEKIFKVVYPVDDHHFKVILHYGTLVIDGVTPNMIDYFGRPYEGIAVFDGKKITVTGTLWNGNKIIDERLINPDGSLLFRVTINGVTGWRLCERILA
T1 sequence (P0A3G2 other isoform, or with tags, fused parts or gaps with the stated changes): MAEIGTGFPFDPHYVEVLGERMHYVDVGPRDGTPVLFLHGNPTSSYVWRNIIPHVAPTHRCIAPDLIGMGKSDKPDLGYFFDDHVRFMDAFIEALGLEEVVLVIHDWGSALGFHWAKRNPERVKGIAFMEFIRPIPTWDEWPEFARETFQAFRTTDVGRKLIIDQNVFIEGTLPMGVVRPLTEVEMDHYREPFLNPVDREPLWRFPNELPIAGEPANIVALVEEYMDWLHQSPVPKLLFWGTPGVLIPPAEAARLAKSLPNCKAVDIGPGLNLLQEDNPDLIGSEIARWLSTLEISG
T1 sequence (P62942 whole entry F37V, the tested form may be a part): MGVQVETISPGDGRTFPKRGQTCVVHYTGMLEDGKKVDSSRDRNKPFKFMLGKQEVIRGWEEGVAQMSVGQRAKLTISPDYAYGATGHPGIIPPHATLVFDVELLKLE

[2] = biological target: T1, Halo-EGFP-NanoLuc-FKBP^F36V (H-E-N-F) fusion protein; type: cell-based; details: 125-500 nM, 5 h
wild-type HT29 cells = assay: Necroptosis assay (PI exclusion, flow cytometry), wild-type HT29 cells, TNF+SM+IDN; type: cell-based, human; details: sheet S5F
Protocol: To simulate necroptosis, cells were seeded into 96-well plates ±40 ng/mL doxycycline, to induce construct expression, and treated with 100 ng/mL FLAG-TNF (recombinant human, in-house), 500 nM compound A Smac mimetic (kindly gifted by TetraLogics Pharmaceuticals) and 5 μM IDN-6556 (Cayman) or 10 uM Z-VAD-fmk (Selleckchem) overnight (16–24 h). Degrader compounds or a DMSO vehicle control were added for 5 h, as stated in the Fig. legends. Cells were detached using Trypsin-EDTA (Merck) and resuspended in cell supernatants containing 10 μg/mL propidium iodide (PI). PI exclusion analysis was performed using an LSR II flow cytometer (Becton Dickinson, NJ) with 10,000 single-cell events per sample. Flow cytometry data were analysed using WEASEL version 2.7 software (Frank Battye).
Supplementary Figure 5. […]
NC4. Data are representative of N = 3 independent experiments. f-h. HT29 cells were stimulated with DMSO (control) or 500 nM of degrader for 5 hours before the addition of TNF (100 ng/mL) + Smac mimetic (compound A; 500 nM-1 µM) + caspase inhibitor; Emricasan (IDN) (5 µM), for 24 hours. Cell death was assessed by flow cytometric analysis of PI exclusion. N = 3 replicates (symbols) is shown, EB; mean ± SD. Data are representative of N = 3 independent experiments. i. Representative flow cytometry gating strategy. Source data are provided as a Source Data file.

[3] = biological target: recombinant NanoLuc enzyme (Oplophorus gracilirostris, UniProt Q9GV45, A31E/A60N/A81I/F95D/I117V/K70R/L54V/L99Q/M102K/N193R/P142E/Q151K/Q38R/Q45L/V71I/Y165I); type: biochemical; details: replicates
recombinant NanoLuc enzyme, sequence (Q9GV45 other isoform, or with tags, fused parts or gaps with the stated changes): as the sequence (Q9GV45 other isoform, or with tags, fused parts or gaps with the stated changes) above

NanoLuc = details: read-out: IC50 against the enzymatic activity of NanoLuc; cited from earlier work
[4] = 62.5nM, sheet S3B, replicate wells
[5] = 250nM, sheet S3B, replicate wells
[6] = 500nM, sheet S3B, replicate wells
[7] = 1uM, sheet S3B, replicate wells

Q: With O=C(COCCOCCCCCCCl)NCCCCNc1cccc2c1C(=O)N(C1CCC(=O)NC1=O)C2=O (stereo not drawn) [HC2] as the molecule, how does the “Blank corrected (470-80)” value [1, 4] read?
A: 420571 and 387799 and 422451 and 372874

Q: What about the “Fold Change” value [1, 4] of the same molecule?
A: 29.7356 and 27.4185 and 29.8685 and 26.3633

Q: And the “Blank corrected (470-80)” value [1, 5]?
A: 400261 and 371225 and 406289 and 348754

Q: And the “Fold Change” value [1, 5]?
A: 28.2996 and 26.2467 and 28.7258 and 24.6579

Q: And the “Blank corrected (470-80)” value [1, 6]?
A: 327362 and 397295 and 324101 and 372826

Q: What about the “Fold Change” value [1, 6] of the same molecule?
A: 23.1455 and 28.0899 and 22.9149 and 26.3599

Q: And the “Blank corrected (470-80)” value [1, 7]?
A: 379647 and 379271 and 373688 and 369126

Q: And the “Fold Change” value [1, 7]?
A: 26.8422 and 26.8156 and 26.4208 and 26.0983

Q: With O=C1CCC(N2C(=O)c3cccc(OCCOCCCCCCCl)c3C2=O)C(=O)N1 (stereo not drawn) [HC3] as the molecule, how does the “Blank corrected (470-80)” value [1, 4] read?
A: 383533 and 318115 and 323446 and 301555

Q: And the “Fold Change” value [1, 4]?
A: 27.1169 and 22.4917 and 22.8686 and 21.3208

Q: What about the “Blank corrected (470-80)” value [1, 5] of the same molecule?
A: 323125 and 344451 and 351301 and 328848

Q: And the “Fold Change” value [1, 5]?
A: 22.8459 and 24.3537 and 24.838 and 23.2505

Q: And the “Blank corrected (470-80)” value [1, 6]?
A: 366778 and 337071 and 347923 and 313983

Q: And the “Fold Change” value [1, 6]?
A: 25.9323 and 23.8319 and 24.5992 and 22.1995

Q: What about the “Blank corrected (470-80)” value [1, 7] of the same molecule?
A: 388451 and 372097 and 370806 and 376397

Q: What about the “Fold Change” value [1, 7] of the same molecule?
A: 27.4646 and 26.3084 and 26.2171 and 26.6124

Q: What does the source list for CC(C)C[C@@H](C=O)NC(=O)[C@H](CC(C)C)NC(=O)[C@H](CC(C)C)NC(=O)OCc1ccccc1 [MG132] (Cbz-Leu-Leu-Leu-aldehyde)?
A: Blank corrected Raw Data (470-80) ([1]; +dox, MG132 (10uM) alone (DMSO instead of PROTAC)): 83521 and 88764 and 88216 and 91215; Fold Change ([1]; +dox, MG132 (10uM) alone (DMSO instead of PROTAC), fold of -dox well): 83.7723 and 89.0311 and 88.4814 and 91.4895

Q: What does the source list for CCc1cccc(N(CC)C(=O)Cn2c(C(=O)NC3CCC(C(=O)NCCCCCCCC(=O)NCCCCCCOc4cccc5c4C(=O)N(C4CCC(=O)NC4=O)C5=O)CC3)cc3ccccc32)c1 (stereo not drawn) [NC3]?
A: degradation of the H-E-N-F substrate protein by Western blot, comparison of NanoTACs [2]: consistently outperforming the first analogue NC1; viable cells (PI exclusion) (wild-type HT29 cells; TNF+SM+IDN): 7.5 and 6.4 and 5.5; viable cells (PI exclusion) (wild-type HT29 cells; Unt (no death stimulus)): 69.5 and 75.6 and 73.1

Q: Which “NanoLuc luminescence, Blank corrected (470-80)” value (shortened to “NanoLuc luminescence … (470-80)”) ([1]; 62.5nM, 2h, replicate wells) does the source give for CCc1cccc(N(CC)C(=O)Cn2c(C(=O)NC3CCC(C(=O)NCCCCCCCC(=O)NCCCCNc4cccc5c4C(=O)N(C4CCC(=O)N(C)C4=O)C5=O)CC3)cc3ccccc32)c1 (stereo not drawn) [NC*] here?
A: 6632 and 6164 and 5786

Q: What about the “NanoLuc luminescence … (470-80)” value ([1]; 62.5nM, 4h, replicate wells) of the same molecule?
A: 6756 and 7430 and 5962 and 6824

Q: What about the “NanoLuc luminescence … (470-80)” value ([1]; 62.5nM, 6h, replicate wells) of the same molecule?
A: 6820 and 5574 and 6168

Q: What about the “NanoLuc luminescence … (470-80)” value ([1]; 62.5nM, 8h, replicate wells) of the same molecule?
A: 5136 and 5355 and 4609

Q: And the “NanoLuc luminescence … (470-80)” value ([1]; 62.5nM, 10h, replicate wells)?
A: 4237 and 3067 and 4015

Q: What about the “NanoLuc luminescence … (470-80)” value ([1]; 250nM, 2h, replicate wells) of the same molecule?
A: 1984 and 2219 and 1857

Q: And the “NanoLuc luminescence … (470-80)” value ([1]; 250nM, 4h, replicate wells)?
A: 1613 and 1684 and 1340

Q: And the “NanoLuc luminescence … (470-80)” value ([1]; 250nM, 6h, replicate wells)?
A: 1527 and 1526 and 1826 and 1766

Q: And the “NanoLuc luminescence … (470-80)” value ([1]; 250nM, 8h, replicate wells)?
A: 1602 and 1230 and 1627

Q: And the “NanoLuc luminescence … (470-80)” value ([1]; 250nM, 10h, replicate wells)?
A: 919 and 829 and 1005

Q: What about the “NanoLuc luminescence … (470-80)” value ([1]; 500nM, 2h, replicate wells) of the same molecule?
A: 1232 and 850 and 1011 and 825

Q: What about the “NanoLuc luminescence … (470-80)” value ([1]; 500nM, 4h, replicate wells) of the same molecule?
A: 934 and 992 and 902

Q: And the “NanoLuc luminescence … (470-80)” value ([1]; 500nM, 6h, replicate wells)?
A: 854 and 738 and 679 and 842

Q: And the “NanoLuc luminescence … (470-80)” value ([1]; 500nM, 8h, replicate wells)?
A: 717 and 620 and 849

Q: And the “NanoLuc luminescence … (470-80)” value ([1]; 500nM, 10h, replicate wells)?
A: 481 and 501 and 461

Q: Which “NanoLuc luminescence (enzyme activity remaining)” value ([3]; [uM] -0.30103 (log10 concentration)) does the source give for CCc1cccc(N(CC)C(=O)Cn2c(C(=O)N[C@H]3CC[C@H](C(=O)NCCCCCCCC(=O)O)CC3)cc3ccccc32)c1 [NanoLuc Inhibtor 2] here?
A: 0.9

Q: What about the “NanoLuc luminescence (enzyme activity remaining)” value ([3]; [uM] -0.82391 (log10 concentration)) of the same molecule?
A: 1.5 (2×) and 1.6

Q: And the “NanoLuc luminescence (enzyme activity remaining)” value ([3]; [uM] -1.34679 (log10 concentration))?
A: 4.4 and 4.7 and 4.6

Q: And the “NanoLuc luminescence (enzyme activity remaining)” value ([3]; [uM] -1.86967 (log10 concentration))?
A: 23.6 and 24.5 and 24.3

Q: What about the “NanoLuc luminescence (enzyme activity remaining)” value ([3]; [uM] -2.39254 (log10 concentration)) of the same molecule?
A: 55.8 and 56.1 and 58

Q: What about the “NanoLuc luminescence (enzyme activity remaining)” value ([3]; [uM] -2.91542 (log10 concentration)) of the same molecule?
A: 74.8 and 76.4 and 76

Q: And the “NanoLuc luminescence (enzyme activity remaining)” value ([3]; [uM] -3.4383 (log10 concentration))?
A: 81.7 and 82.7 and 82.1

Q: For CCN(C(=O)Cn1c(C(=O)N[C@H]2CC[C@H](C(=O)NCCCCCCCC(=O)O)CC2)cc2sccc21)c1cccc(C)c1 [NanoLuc inhibitor 1], which IC50 (NanoLuc) is on record?
A: 31 nM

Q: Which IC50 (NanoLuc) does the source give for CCc1cccc(N(CC)C(=O)Cn2c(C(=O)N[C@H]3CC[C@H](C(=O)NCCCCCCCC(=O)O)CC3)cc3ccccc32)c1 [NanoLuc inhibitor 2] here?
A: 4.2 nM
